# Assay results from patent publication US20130059879A1, “Small Molecule Inhibitors of PFKFB3 and Glycolytic Flux and Their Methods of Use as Anti-Cancer Therapeutics” (UNIVERSITY OF LOUISVILLE RESEARCH FOUNDATION, INC., priority 2010, published 2013).
# System: not listed separately
# Assay: Solubility in solvents and excipients, 1 hour at room temperature, HPLC
# Type: physicochemical
# Settings: aqueous with cosolvent or surfactant or cyclodextrin, thermodynamic from solid; Cre:EtOH:Saline 5:5:90 mixture, 1 hour at room temperature; read-out: Solubility Cre:EtOH:Saline
# Procedure: Chemical properties of the compounds of the invention were investigated, including the solubility in several solvents and pharmaceutically accepted excipients. […] Briefly, selected compounds of the invention are dissolved in a small volume of the solvents/excipients of interest at room temperature over 1 hour in typically 1 ml and the concentration is measured by HPLC after filtration.
row,solubility at 1 h [µg/mL],Compound
1,100,"O=C(c1ccncc1)c1cc2c(cc(F)c3ccccc32)[nH]1 [ACT-PFK-118, (5-Fluoro-3H-benzo[e]indol-2-yl)-pyridin-4-yl-methanone]"
2,300,"COc1cc(C(=O)c2cc3c(cc(F)c4ccccc43)[nH]2)ccc1O [ACT-PFK-119, (5-Fluoro-3H-benzo[e]indol-2-yl)-(4-hydroxy-3-methoxy-phenyl)-methanone]"

# Same assay, conditions: ethanol, organic solvent or mixture, thermodynamic from solid; EtOH, 1 hour at room temperature; read-out: Solubility EtOH
row,solubility at 1 h [µg/mL],Compound
1,200,"O=C(c1ccncc1)c1cc2c(cc(F)c3ccccc32)[nH]1 [ACT-PFK-118, (5-Fluoro-3H-benzo[e]indol-2-yl)-pyridin-4-yl-methanone]"
2,1000,"COc1cc(C(=O)c2cc3c(cc(F)c4ccccc43)[nH]2)ccc1O [ACT-PFK-119, (5-Fluoro-3H-benzo[e]indol-2-yl)-(4-hydroxy-3-methoxy-phenyl)-methanone]"

# Same assay, conditions: organic solvent or mixture, thermodynamic from solid; 1:1 cremophor EL-P:ethanol mixture, 1 hour at room temperature; read-out: Solubility Cre:EtOH
row,solubility at 1 h [µg/mL],Compound
1,1000,"O=C(c1ccncc1)c1cc2c(cc(F)c3ccccc32)[nH]1 [ACT-PFK-118, (5-Fluoro-3H-benzo[e]indol-2-yl)-pyridin-4-yl-methanone]"
2,6100,"COc1cc(C(=O)c2cc3c(cc(F)c4ccccc43)[nH]2)ccc1O [ACT-PFK-119, (5-Fluoro-3H-benzo[e]indol-2-yl)-(4-hydroxy-3-methoxy-phenyl)-methanone]"

# Same assay, conditions: organic solvent or mixture, thermodynamic from solid; Acetone, 1 hour at room temperature; read-out: Solubility Acetone
row,solubility at 1 h [µg/mL],Compound
1,600,"O=C(c1ccncc1)c1cc2c(cc(F)c3ccccc32)[nH]1 [ACT-PFK-118, (5-Fluoro-3H-benzo[e]indol-2-yl)-pyridin-4-yl-methanone]"
2,5500,"COc1cc(C(=O)c2cc3c(cc(F)c4ccccc43)[nH]2)ccc1O [ACT-PFK-119, (5-Fluoro-3H-benzo[e]indol-2-yl)-(4-hydroxy-3-methoxy-phenyl)-methanone]"

# Same assay, conditions: organic solvent or mixture, thermodynamic from solid; Cremophor, 1 hour at room temperature; read-out: Solubility Cremophor
row,solubility at 1 h [µg/mL],Compound
1,2200,"O=C(c1ccncc1)c1cc2c(cc(F)c3ccccc32)[nH]1 [ACT-PFK-118, (5-Fluoro-3H-benzo[e]indol-2-yl)-pyridin-4-yl-methanone]"
2,14400,"COc1cc(C(=O)c2cc3c(cc(F)c4ccccc43)[nH]2)ccc1O [ACT-PFK-119, (5-Fluoro-3H-benzo[e]indol-2-yl)-(4-hydroxy-3-methoxy-phenyl)-methanone]"

# Same assay, conditions: organic solvent or mixture, thermodynamic from solid; DCM, 1 hour at room temperature; read-out: Solubility DCM
row,solubility at 1 h [µg/mL],Compound
1,300,"O=C(c1ccncc1)c1cc2c(cc(F)c3ccccc32)[nH]1 [ACT-PFK-118, (5-Fluoro-3H-benzo[e]indol-2-yl)-pyridin-4-yl-methanone]"
2,700,"COc1cc(C(=O)c2cc3c(cc(F)c4ccccc43)[nH]2)ccc1O [ACT-PFK-119, (5-Fluoro-3H-benzo[e]indol-2-yl)-(4-hydroxy-3-methoxy-phenyl)-methanone]"

# Same assay, conditions: organic solvent or mixture, thermodynamic from solid; Tween 80, 1 hour at room temperature; read-out: Solubility Tween 80
row,solubility at 1 h [µg/mL],Compound
1,1600,"O=C(c1ccncc1)c1cc2c(cc(F)c3ccccc32)[nH]1 [ACT-PFK-118, (5-Fluoro-3H-benzo[e]indol-2-yl)-pyridin-4-yl-methanone]"
2,11400,"COc1cc(C(=O)c2cc3c(cc(F)c4ccccc43)[nH]2)ccc1O [ACT-PFK-119, (5-Fluoro-3H-benzo[e]indol-2-yl)-(4-hydroxy-3-methoxy-phenyl)-methanone]"

# Same assay, conditions: organic solvent or mixture, thermodynamic from solid; Tween80:EtOH 6:4 mixture, 1 hour at room temperature; read-out: Solubility Twee80:EtOH
row,solubility at 1 h [µg/mL],Compound
1,1300,"O=C(c1ccncc1)c1cc2c(cc(F)c3ccccc32)[nH]1 [ACT-PFK-118, (5-Fluoro-3H-benzo[e]indol-2-yl)-pyridin-4-yl-methanone]"
2,8600,"COc1cc(C(=O)c2cc3c(cc(F)c4ccccc43)[nH]2)ccc1O [ACT-PFK-119, (5-Fluoro-3H-benzo[e]indol-2-yl)-(4-hydroxy-3-methoxy-phenyl)-methanone]"

# System: not listed separately
# Assay: Microsomal stability in human liver microsomes
# Type: in vitro ADME
# Settings: 0 min
# Procedure: Microsomal stability in vitro in different biologic media (liver microsomes, S9 fraction, hepatocytes) and species is ascertained to evaluate the rate at which a compound undergoes metabolism in the experimental in vitro conditions. Results for some compounds of the invention after a 60 minutes incubation period in human liver microsomes are shown in the Table 6 below. […] Experimental conditions are briefly described here: the stability in human liver microsomes of several compounds was done over […] at 37° C. using pooled mixed gender human liver microsomes. These liver microsomes were prepared at 1.0 mg/ml of microsomal protein in a 100 mM potassium phosphate pH 7.4 buffer with 1 mM NADPH. The media was incubated at 37° C. with the compound in solution in DMSO. The concentration of the compound was followed by LC/MS-MS as a function of time. Samples were assayed at t=0, 15, 30, and 60 minutes. Testosterone was used as a positive control. The same experiment was performed with mouse, rat or dog liver microsomes instead of human liver microsomes.
row,"HLM, Mean metabolized (%)",Compound
1,0.0,"COc1ccc(C(=O)c2cc3c(ccc4ccccc43)[nH]2)cc1 [ACT-PFK-093, (3H-Benzo[e]indol-2-yl)-(4-methoxy-phenyl)-methanone]"
2,0.0,"O=C(c1ccccc1)c1cc2c(cc(F)c3ccccc32)[nH]1 [ACT-PFK-104, (5-Fluoro-3H-benzo[e]indol-2-yl)-phenyl-methanone]"
3,0.0,"O=C(c1ccncc1)c1cc2c(cc(F)c3ccccc32)[nH]1 [ACT-PFK-118, (5-Fluoro-3H-benzo[e]indol-2-yl)-pyridin-4-yl-methanone]"
4,0.0,"COc1cc(C(=O)c2cc3c(cc(F)c4ccccc43)[nH]2)ccc1O [ACT-PFK-119, (5-Fluoro-3H-benzo[e]indol-2-yl)-(4-hydroxy-3-methoxy-phenyl)-methanone]"

# Same assay, conditions: 60 min incubation, 1.0 mg/ml microsomal protein, 1 mM NADPH, 37° C.
row,"HLM, Mean metabolized (%)",Compound
1,95,"COc1ccc(C(=O)c2cc3c(ccc4ccccc43)[nH]2)cc1 [ACT-PFK-093, (3H-Benzo[e]indol-2-yl)-(4-methoxy-phenyl)-methanone]"
2,80,"O=C(c1ccccc1)c1cc2c(cc(F)c3ccccc32)[nH]1 [ACT-PFK-104, (5-Fluoro-3H-benzo[e]indol-2-yl)-phenyl-methanone]"
3,22.2,"O=C(c1ccncc1)c1cc2c(cc(F)c3ccccc32)[nH]1 [ACT-PFK-118, (5-Fluoro-3H-benzo[e]indol-2-yl)-pyridin-4-yl-methanone]"
4,79.2,"COc1cc(C(=O)c2cc3c(cc(F)c4ccccc43)[nH]2)ccc1O [ACT-PFK-119, (5-Fluoro-3H-benzo[e]indol-2-yl)-(4-hydroxy-3-methoxy-phenyl)-methanone]"

# System: U937
# Assay: Cancer cell proliferation, Alamar Blue assay, 72 hours
# Type: cell-based
# Settings: Homo sapiens, U-937
# Procedure: (§1) The ability of the compounds described herein to kill or inhibit the proliferation of cancer cells was measured using either the MTT assay, or the Alamar Blue assay, or the Cell Titer Glow® assay using 48 or 72 hours exposure. […] The procedures are briefly described below. Cells of the desired tumor cell line were plated at 2×10^5 cells/ml in 96 well plates. Twice the indicated concentrations of the compounds of the invention were added to cells the following day in an equal volume of media. 72 hours later, cells were lysed and subjected to ATP determination using the CellTiter Glo-Luminescent Cell Viability Assay kit (Promega, Madison, Wis.). Experiments were done in triplicate. When using the MTT assay or the Alamar blue assay, the experimental conditions are essentially similar; at the end of the incubation period, 20 microliters of the MTT solution is added per well and the samples are incubated for an additional four hours, rinsed, and the absorbance at 570 nm measured. […] Table 2 lists the IC50 values for the compounds of the invention in several cell lines including Jurkat, Calu-6, NCI-H82, U937, HCT-116, and MDA-MB-231 cancer cell lines.
row,IC50 [nM],Compound
1,95,"O=C(c1ccncc1)c1cc2c(cc(F)c3ccccc32)[nH]1 [ACT-PFK-118, (5-Fluoro-3H-benzo[e]indol-2-yl)-pyridin-4-yl-methanone]"
2,70,"COc1cc(C(=O)c2cc3c(cc(F)c4ccccc43)[nH]2)ccc1O [ACT-PFK-119, (5-Fluoro-3H-benzo[e]indol-2-yl)-(4-hydroxy-3-methoxy-phenyl)-methanone]"

# System: MDA-MB-231
# Assay: as above
# Type: cell-based
# Settings: Homo sapiens
# Procedure: as §1
row,IC50 [nM],Compound
1,5950,"O=C(c1ccccc1)c1cc2c(cc(F)c3ccccc32)[nH]1 [ACT-PFK-104, (5-Fluoro-3H-benzo[e]indol-2-yl)-phenyl-methanone]"
2,673,"O=C(c1ccncc1)c1cc2c(cc(F)c3ccccc32)[nH]1 [ACT-PFK-118, (5-Fluoro-3H-benzo[e]indol-2-yl)-pyridin-4-yl-methanone]"
3,620,"COc1cc(C(=O)c2cc3c(cc(F)c4ccccc43)[nH]2)ccc1O [ACT-PFK-119, (5-Fluoro-3H-benzo[e]indol-2-yl)-(4-hydroxy-3-methoxy-phenyl)-methanone]"

# System: HCT-116
# Assay: as above
# Type: cell-based
# Settings: Homo sapiens, HCT-116
# Procedure: as §1
row,IC50 [nM],Compound
1,320,"O=C(c1ccccc1)c1cc2c(cc(F)c3ccccc32)[nH]1 [ACT-PFK-104, (5-Fluoro-3H-benzo[e]indol-2-yl)-phenyl-methanone]"
2,1700,"O=C(c1ccncc1)c1cc2c(cc(F)c3ccccc32)[nH]1 [ACT-PFK-118, (5-Fluoro-3H-benzo[e]indol-2-yl)-pyridin-4-yl-methanone]"
3,365,"COc1cc(C(=O)c2cc3c(cc(F)c4ccccc43)[nH]2)ccc1O [ACT-PFK-119, (5-Fluoro-3H-benzo[e]indol-2-yl)-(4-hydroxy-3-methoxy-phenyl)-methanone]"

# System: Jurkat
# Assay: as above
# Type: cell-based
# Settings: Homo sapiens, Jurkat
# Procedure: as §1
row,IC50 [nM],Compound
1,118,"O=C(c1ccccc1)c1cc2c(cc(F)c3ccccc32)[nH]1 [ACT-PFK-104, (5-Fluoro-3H-benzo[e]indol-2-yl)-phenyl-methanone]"
2,240,"O=C(c1ccncc1)c1cc2c(cc(F)c3ccccc32)[nH]1 [ACT-PFK-118, (5-Fluoro-3H-benzo[e]indol-2-yl)-pyridin-4-yl-methanone]"
3,110,"COc1cc(C(=O)c2cc3c(cc(F)c4ccccc43)[nH]2)ccc1O [ACT-PFK-119, (5-Fluoro-3H-benzo[e]indol-2-yl)-(4-hydroxy-3-methoxy-phenyl)-methanone]"

# System: NCI-H82
# Assay: as above
# Type: cell-based
# Settings: Homo sapiens, NCI-H82, read-out: IC50 NCl-H82
# Procedure: as §1
row,IC50 [nM],Compound
1,310,"O=C(c1ccccc1)c1cc2c(cc(F)c3ccccc32)[nH]1 [ACT-PFK-104, (5-Fluoro-3H-benzo[e]indol-2-yl)-phenyl-methanone]"
2,385,"O=C(c1ccncc1)c1cc2c(cc(F)c3ccccc32)[nH]1 [ACT-PFK-118, (5-Fluoro-3H-benzo[e]indol-2-yl)-pyridin-4-yl-methanone]"
3,315,"COc1cc(C(=O)c2cc3c(cc(F)c4ccccc43)[nH]2)ccc1O [ACT-PFK-119, (5-Fluoro-3H-benzo[e]indol-2-yl)-(4-hydroxy-3-methoxy-phenyl)-methanone]"

# System: Calu-6
# Assay: as above
# Type: cell-based
# Settings: Homo sapiens, Calu-6
# Procedure: as §1
row,IC50 [nM],Compound
1,200,"O=C(c1ccccc1)c1cc2c(cc(F)c3ccccc32)[nH]1 [ACT-PFK-104, (5-Fluoro-3H-benzo[e]indol-2-yl)-phenyl-methanone]"
2,420,"O=C(c1ccncc1)c1cc2c(cc(F)c3ccccc32)[nH]1 [ACT-PFK-118, (5-Fluoro-3H-benzo[e]indol-2-yl)-pyridin-4-yl-methanone]"
3,70,"COc1cc(C(=O)c2cc3c(cc(F)c4ccccc43)[nH]2)ccc1O [ACT-PFK-119, (5-Fluoro-3H-benzo[e]indol-2-yl)-(4-hydroxy-3-methoxy-phenyl)-methanone]"

# Target: T1, PFKFB3 (Homo sapiens, UniProt Q16875)
# T1 construct: GST
# Assay: Inhibition of recombinant PFKFB3 kinase activity (ADP Glow assay)
# Type: biochemical
# Settings: 250 nM analog concentration; read-out: % Inhibition of PFKFB3 Enzymatic Activity
# Procedure: PFKFB3 was prepared by expression in E. coli and purified by GST column and column chromatography. […] The recombinant protein was pure and active as determined by the results of a kinase activity assay commercially available (such as ADP Glow® assay, […]). The same assay was used to determine the inhibition of the protein and the results are shown in Table 5 below (IC50 values or percent inhibition at a fixed concentration). Results confirmed that the compounds of the invention have low nanomolar IC50 values, interacting with PFKFB3 and inhibiting its enzymatic activity.
# T1 sequence (Q16875 whole entry, species assumed): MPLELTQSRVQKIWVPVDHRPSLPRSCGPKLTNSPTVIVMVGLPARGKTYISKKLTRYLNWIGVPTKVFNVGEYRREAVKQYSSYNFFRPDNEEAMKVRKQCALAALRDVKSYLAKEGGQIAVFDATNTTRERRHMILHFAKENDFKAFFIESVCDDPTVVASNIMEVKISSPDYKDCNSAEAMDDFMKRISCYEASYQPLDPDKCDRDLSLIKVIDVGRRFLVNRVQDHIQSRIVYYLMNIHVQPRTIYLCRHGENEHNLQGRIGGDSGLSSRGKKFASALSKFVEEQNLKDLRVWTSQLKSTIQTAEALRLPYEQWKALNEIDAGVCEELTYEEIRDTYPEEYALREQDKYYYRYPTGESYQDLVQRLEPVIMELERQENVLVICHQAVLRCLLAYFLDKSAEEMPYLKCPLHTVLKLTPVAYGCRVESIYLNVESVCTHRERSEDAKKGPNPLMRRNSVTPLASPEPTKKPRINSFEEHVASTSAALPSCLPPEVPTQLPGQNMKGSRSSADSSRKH
row,inhibition at 0.25 µM [%],Compound
1,0,"O=C(c1ccncc1)c1cc2c(cc(F)c3ccccc32)[nH]1 [ACT-PFK-118, (5-Fluoro-3H-benzo[e]indol-2-yl)-pyridin-4-yl-methanone]"
2,3.7,"COc1cc(C(=O)c2cc3c(cc(F)c4ccccc43)[nH]2)ccc1O [ACT-PFK-119, (5-Fluoro-3H-benzo[e]indol-2-yl)-(4-hydroxy-3-methoxy-phenyl)-methanone]"
